# From article PMC3368886, “ATPase Cycle and DNA Unwinding Kinetics of RecG Helicase” (PLoS ONE, 2012)
# Experiments:
# [1] = target: T1, RecG⋅DNA(A40:B40) (Thermotoga maritima, UniProt Q9WY48); test: Stopped-flow mant fluorescence: mant nucleotide binding to RecG⋅DNA, pseudo-first-order; conditions: 20°C
# T1 construct: made in house
# T1 sequence (Q9WY48 1-780): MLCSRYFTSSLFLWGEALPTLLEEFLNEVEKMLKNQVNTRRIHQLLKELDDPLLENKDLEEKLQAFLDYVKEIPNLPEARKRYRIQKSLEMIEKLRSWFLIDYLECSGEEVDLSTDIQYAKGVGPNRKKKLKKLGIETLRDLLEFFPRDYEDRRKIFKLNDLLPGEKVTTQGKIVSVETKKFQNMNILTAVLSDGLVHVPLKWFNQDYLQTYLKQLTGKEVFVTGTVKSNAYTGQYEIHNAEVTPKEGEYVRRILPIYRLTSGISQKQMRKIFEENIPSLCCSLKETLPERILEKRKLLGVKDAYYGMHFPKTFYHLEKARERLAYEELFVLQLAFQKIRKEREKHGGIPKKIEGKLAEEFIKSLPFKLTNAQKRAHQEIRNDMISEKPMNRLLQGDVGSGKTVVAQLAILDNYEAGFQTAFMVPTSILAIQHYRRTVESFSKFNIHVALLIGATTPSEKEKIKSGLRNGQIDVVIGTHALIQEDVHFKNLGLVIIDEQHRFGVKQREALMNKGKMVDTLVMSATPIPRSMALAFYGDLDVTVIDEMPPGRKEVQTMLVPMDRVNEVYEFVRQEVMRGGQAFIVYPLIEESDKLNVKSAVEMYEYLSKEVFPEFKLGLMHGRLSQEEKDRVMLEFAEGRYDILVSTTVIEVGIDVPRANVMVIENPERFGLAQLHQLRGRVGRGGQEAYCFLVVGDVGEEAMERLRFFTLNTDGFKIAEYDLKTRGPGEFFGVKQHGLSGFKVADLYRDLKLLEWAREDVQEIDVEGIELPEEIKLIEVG
# Method: MantATP binding to RecG⋅DNA(A40:B40) was measured under pseudo-first-order conditions, that is mantATP in large excess over the protein. Using the stopped-flow apparatus, several concentrations of mantATP were rapidly mixed with RecG⋅DNA and fluorescence followed with time. Each trace was fitted by a single exponential (Figure 3A) and the concentration dependence of the observed rate constants were fit well by a hyperbola (Figure 3B). […] As mantATP is also hydrolyzed, the rate of the forward reaction needs to be included, in this case limited by the cleavage step 2, as described later. The fit gives 1/K 1a as 24 (±4) µM, k +1b + k −1b + k +2 as 26.1 (±1.8) s^−1 and the intercept gives k −1b + k +2 as <1 s^−1. Given that k +2 is 0.2 s^–1 (see below), k −1b is <0.8 s^−1. Potentially, an alternative explanation for such a hyperbolic relationship could be preferential binding of either the 2′- or 3′-isomer of mantATP and then isomerization of the non-favored isomer. However, the observed rates in these measurements were several orders of magnitude faster than the likely isomerization rate. In order to assess whether the two isomers of mantATP and their interconversion are factors in any fluorescence traces for mantATP, an equivalent measurement was made using 3′-mant-2′-deoxyATP.
# Figure 3 MantATP binding to RecG⋅DNA. MantATP at the micromolar concentrations shown was mixed in the stopped flow apparatus with 0.5 µM RecG and 2.5 µM DNA Junction (A40:B40) at 20°C in the buffer described in materials and methods. Individual traces (offset from each other) were fitted to single exponentials and the dependence of the rate constants on concentration was then fitted by a hyperbola. The points shown are averages of at least 3 measurements. The fit gives 1/K 1a as 24 (±4) µM and k +1b + k− 1b + k +2 as 26.1 (±1.8) s^−1 and the intercept was <1 s^–1 (Scheme in Figure 2B).
# MantADP binding to RecG⋅DNA complex was measured under pseudo-first order conditions by stopped-flow fluorescence.
# Figure 5 MantADP binding kinetics to RecG⋅DNA. MantADP at various concentrations was mixed in the stopped flow apparatus with 0.5 µM RecG and 2.5 µM DNA (A40:B40) under the conditions of Figure 4. Traces (not shown) were fitted by single exponentials. The rate constants are shown as a function of concentration and the best linear fit, gives a slope of 1.1 (±0.4) µM^−1s^−1 and an intercept of <1 s^−1.
# Stopped-flow experiments were performed in a HiTech SF61DX2 apparatus (TgK Scientific Ltd, Bradford-on-Avon, UK) with a mercury-xenon light source and HiTech KinetAsyst 3 or Kinetic Studio 1 software. For MDCC-PBP fluorescence, the excitation wavelength used was 436 nm and a 455 nm cut-off filter (Schott glass) used to collect emitted light. The signal was calibrated using known concentrations of Pi. The solutions contained the Pi mop, to minimize phosphate contamination and comprising 0.01 unit ml^−1 bacterial purine nucleoside phosphorylase and 200 µM 7-methylguanosine. For mant fluorescence, 366 nm was used to excite and a 400 nm cut-off filter (Schott glass) used to collect light. Measurements of Cy3 fluorescence used 547 nm excitation and a 570 nm cut-off filter. In experiments described, the quoted concentrations are those in the mixing chamber, except where stated. Data were fitted to theoretical curves using the HiTech software or Grafit.
# [2] = target: T2, RecG (Thermotoga maritima, UniProt Q9WY48); test: Double-mix stopped-flow: RecG⋅mantATP then mixed with DNA; format: biochemical; conditions: RecG + mantATP aged 1 s, then mixed with DNA junction (A40:B40)
# T2 construct: made in house
# T2 sequence (Q9WY48 1-780): T1 sequence (Q9WY48 1-780)
# Method: Figure 4 Kinetic measurement of mantATP with excess of RecG and DNA: binding, hydrolysis and Pi release. The concentrations for all experiments were 0.5 µM mantATP, 2.5 µM RecG, 5 µM DNA (A40:B40) and 10 µM MDCC-PBP (for Pi measurement). All measurements were carried out at 20°C in the buffer described in Materials and Methods. (A) Time course of mant fluorescence (solid line), mantADP formation (circles) and Pi release (dashed line), measured as described in materials and methods. […] (B) Simulation of these time courses, based upon a global model for a single turnover of mantATP as described in the text. (C) The time course of mant fluorescence upon mixing 0.5 µM mantATP and 2.5 µM RecG with 5 µM DNA junction (A40:B40) after a first mixing of 5 µM RecG and 1 µM mantATP and aging for 1 s.
# As the cleavage step is so slow in the absence of DNA, a double-mix, stopped-flow experiment was performed in order to see if the biphasic increase in mant fluorescence could be separated into the individual processes of mantATP binding and hydrolysis. An excess of RecG was mixed with mantATP and this mix aged for 1 s to allow binding but not hydrolysis. This solution was then mixed with DNA. […] This rate was similar to that of the slower phase, measured above, consistent with this phase being due to DNA-induced hydrolysis.
structure (smiles),measurement,setting,value
"CNc1ccccc1C(=O)O[C@H]1[C@@H](O)[C@H](n2cnc3c(N)ncnc32)O[C@@H]1COP(=O)(O)OP(=O)(O)OP(=O)(O)O [mantATP, 2′(3′)-O-(N-methylanthraniloyl)ATP]",k +1b,[1],25.1 s⁻¹
same,k −1b,[1],<0.8 s⁻¹
same,"k −4 (mantADP second order binding rate constant, slope)",[1]; linear fit,1.1e+06 M⁻¹ s⁻¹
same,"intercept, k −1b + k +2",[1]; hyperbolic fit,< 1 s⁻¹
same,k +1b + k −1b + k +2,[1]; hyperbolic fit,26.1 (±1.8) s^−1
same,rate constant of single exponential increase in mant fluorescence,[2],0.3 (±0.04) s^−1
